What was measured:
green foxtail = assay: Test E green foxtail; type: in vivo, Setaria viridis; details: Preemergence
winter wheat [1] = assay: Test E winter wheat; type: in vivo, Triticum aestivum; details: Preemergence
pigweed = assay: Test B pre/postemergence pigweed; type: in vivo, Amaranthus retroflexus
How it was run: (§1)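 Test chemicals in a non-phytotoxic solvent mixture with surfactant were sprayed preemergence onto planted seeds and postemergence onto plants 2 to 18 cm tall (1- to 4-leaf stage). After twelve to sixteen days in a greenhouse, injury was visually rated against untreated controls from 0 (no effect) to 10 (complete control).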

wild oat = assay: Test E wild oat; type: in vivo, Avena fatua; details: Preemergence; for Wild oat plant response rating (0 to 100 scale): Rate 250 g/ha
winter wheat [2] = assay: Test E winter wheat; type: in vivo, Triticum aestivum; details: Postemergence
How it was run: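 Compounds formulated in non-phytotoxic solvent mixture with surfactant; for postemergence, sprayed on plants at 1- to 4-leaf stage grown in 60:40 sandy loam/greenhouse potting mix. Kept in greenhouse ~21 to 28 days, then visually rated against untreated controls.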

giant foxtail = assay: Test B pre/postemergence giant foxtail; type: in vivo, Setaria faberii
How it was run: as §1

winter barley = assay: Test E winter barley; type: in vivo, Hordeum vulgare; details: Preemergence
Italian ryegrass = assay: Test E Italian ryegrass; type: in vivo, Lolium multiflorum; details: Preemergence
blackgrass = assay: Test E blackgrass; type: in vivo, Alopecurus myosuroides; details: Preemergence
morningglory = assay: Test B pre/postemergence morningglory; type: in vivo, Ipomoea hederacea
How it was run: as §1

[3] = Rate 500 g/ha, 0 to 100 scale where 0 is no effect and 100 is complete control
[4] = Rate 1000 g/ha, 0 to 100 scale where 0 is no effect and 100 is complete control
[5] = Postemergence, Rate 62 g/ha, scale 0 to 10, 0 is no effect, 10 is complete control
[6] = Postemergence, Rate 250 g/ha, scale 0 to 10, 0 no effect, 10 complete control
[7] = Preemergence, Rate 62 g/ha, scale 0 to 10 (0 no effect, 10 complete control)
[8] = Preemergence, Rate 125 g/ha, scale 0 to 10 (0 no effect, 10 complete control)
[9] = Preemergence, Rate 250 g/ha, scale of 0 to 10 where 0 is no effect and 10 is complete control
[10] = Preemergence, Rate 500 g/ha, scale 0 (no effect) to 10 (complete control)
[11] = Rate 125 g/ha, Postemergence, scale 0 to 10, 0 no effect, 10 complete control
[12] = Rate 500 g/ha, Postemergence, scale 0 to 10, 0 no effect, 10 complete control
[13] = Rate 1000 g/ha, 0 to 100 scale, 0 is no effect and 100 is complete control
[14] = Preemergence, Rate 62 g/ha, scale of 0 to 10 where 0 is no effect and 10 is complete control
[15] = Preemergence, Rate 125 g/ha, 0 is no effect, 10 is complete control
[16] = Preemergence, Rate 250 g/ha, scale 0 to 10, 0 is no effect, 10 is complete control
[17] = Preemergence, Rate 500 g/ha, scale of 0 to 10 where 0 is no effect and 10 is complete control
[18] = Rate 62 g/ha, Postemergence, scale of 0 to 10 where 0 is no effect and 10 is complete control
[19] = Rate 125 g/ha, Postemergence, scale 0 to 10
[20] = Rate 500 g/ha, Postemergence, scale 0 to 10
[21] = Rate 500 g/ha, 0 to 100 scale, 0 is no effect, 100 is complete control
[22] = Rate 500 g/ha, 0 to 100 scale (0 no effect, 100 complete control)
[23] = Rate 1000 g/ha, 0 to 100 scale, 0 no effect, 100 complete control
[24] = Rate 62 g/ha, Postemergence, scale 0 to 10 (0 no effect, 10 complete control)
[25] = Rate 125 g/ha, Postemergence, scale of 0 to 10 where 0 is no effect and 10 is complete control
[26] = Rate 125 g/ha, Preemergence, scale of 0 to 10 where 0 is no effect and 10 is complete control
[27] = Rate 250 g/ha, Postemergence, scale of 0 to 10 where 0 is no effect and 10 is complete control

## Cc1nn(C)c(C)c1-n1c(=O)on(C(=O)N(c2ccc(F)cc2)C(C)C)c1=O [Compound 75]
Green foxtail; Rate 250 g/ha, 0 to 100 scale
  Plant response rating, Green foxtail: 60
Green foxtail; [3]
  Plant response rating, Green foxtail: 60
Green foxtail; [4]
  Plant response rating, Green foxtail: 60
Winter wheat [1]; Rate 250 g/ha, 0 to 100 scale
  Plant response rating, Wheat (winter): 10
Winter wheat [1]; [3]
  Plant response rating, Wheat (winter): 20
Winter wheat [1]; [4]
  Plant response rating, Wheat (winter): 65
pigweed; [5]
  Redroot pigweed plant response rating: 0
pigweed; [6]
  Redroot pigweed plant response rating: 0
pigweed; [7]
  Redroot pigweed plant response rating: 0
pigweed; [8]
  Plant response rating, Redroot pigweed: 2
pigweed; [9]
  Plant response rating, Redroot pigweed: 7
pigweed; [10]
  Redroot pigweed plant response rating: 10
pigweed; [11]
  Redroot pigweed plant response rating: 0
pigweed; [12]
  Redroot pigweed plant response rating: 0
Wild oat; [4]
  Plant response rating, Wild oat: 10
Winter wheat [2]; Rate 250 g/ha, 0 to 100 scale (0 no effect, 100 complete control)
  Plant response rating, Wheat (winter): 60
Winter wheat [2]; [13]
  Plant response rating, Wheat (winter): 70
Winter wheat [2]; Rate 500 g/ha, 0 to 100 scale, 0 no effect, 100 complete control
  Plant response rating, Wheat (winter): 75
Giant foxtail; [5]
  Giant foxtail plant response rating: 3
Giant foxtail; [6]
  Giant foxtail plant response rating: 8
Giant foxtail; [7]
  Giant foxtail plant response rating: 6
Giant foxtail; [8]
  Plant response rating, Giant foxtail: 9
Giant foxtail; [9]
  Plant response rating, Giant foxtail: 9
Giant foxtail; [10]
  Giant foxtail plant response rating: 10
Giant foxtail; [11]
  Giant foxtail plant response rating: 6
Giant foxtail; [12]
  Giant foxtail plant response rating: 8
Winter barley; Rate 250 g/ha, 0 to 100 scale
  Plant response rating, Barley (winter): 10
Winter barley; [3]
  Plant response rating, Barley (winter): 20
Winter barley; [4]
  Plant response rating, Barley (winter): 60
Italian ryegrass; Rate 250 g/ha, 0 to 100 scale
  Plant response rating, I. Ryegrass: 20
Italian ryegrass; [3]
  Plant response rating, I. Ryegrass: 30
Italian ryegrass; [4]
  Plant response rating, I. Ryegrass: 50
blackgrass; Rate 250 g/ha, 0 to 100 scale
  Plant response rating, Blackgrass: 20
blackgrass; [3]
  Plant response rating, Blackgrass: 40
blackgrass; [4]
  Plant response rating, Blackgrass: 85
morningglory; [5]
  Morningglory plant response rating: 1
morningglory; [6]
  Morningglory plant response rating: 1
morningglory; [7]
  Morningglory plant response rating: 0
morningglory; [8]
  Plant response rating, Morningglory: 0
morningglory; [9]
  Plant response rating, Morningglory: 0
morningglory; [10]
  Morningglory plant response rating: 2
morningglory; [11]
  Morningglory plant response rating: 1
morningglory; [12]
  Morningglory plant response rating: 3

## CC(C)N(C(=O)n1oc(=O)n(Cc2ccco2)c1=O)c1ccc(F)cc1 [Compound 207]
Green foxtail; Rate 250 g/ha
  Green foxtail plant response rating (0 to 100 scale): 80
Green foxtail; [3]
  Plant response rating, Green foxtail: 90
Green foxtail; [4]
  Plant response rating, Green foxtail: 100
Winter wheat [1]; Rate 250 g/ha
  Wheat (winter) plant response rating (0 to 100 scale): 60
Winter wheat [1]; [3]
  Plant response rating, Wheat (winter): 70
Winter wheat [1]; [4]
  Plant response rating, Wheat (winter): 70
pigweed; [14]
  Redroot pigweed plant response rating: 0
pigweed; [15]
  Redroot pigweed plant response rating (0 to 10 scale): 0
pigweed; [16]
  Redroot pigweed plant response rating: 2
pigweed; [17]
  Plant response rating, Redroot pigweed: 8
pigweed; [18]
  Redroot pigweed plant response rating: 0
pigweed; [19]
  Redroot pigweed plant response rating: 0
pigweed; Rate 250 g/ha, Postemergence
  Plant response rating (0 to 10; 0 is no effect, 10 is complete control), Redroot pigweed: 0
pigweed; [20]
  Redroot pigweed plant response rating: 0
Wild oat
  Wild oat plant response rating (0 to 100 scale): 65
Wild oat; [3]
  Plant response rating, Wild oat: 70
Wild oat; [4]
  Plant response rating, Wild oat: 70
Winter wheat [2]; [13]
  Plant response rating, Wheat (winter): 50
Winter wheat [2]; [21]
  Plant response rating, Wheat (winter): 30
Giant foxtail; [14]
  Giant foxtail plant response rating: 3
Giant foxtail; [15]
  Giant foxtail plant response rating (0 to 10 scale): 6
Giant foxtail; [16]
  Giant foxtail plant response rating: 9
Giant foxtail; [17]
  Plant response rating, Giant foxtail: 10
Giant foxtail; [18]
  Giant foxtail plant response rating: 0
Giant foxtail; [19]
  Giant foxtail plant response rating: 0
Giant foxtail; Rate 250 g/ha, Postemergence
  Plant response rating (0 to 10; 0 is no effect, 10 is complete control), Giant foxtail: 1
Giant foxtail; [20]
  Giant foxtail plant response rating: 2
Winter barley; Rate 250 g/ha
  Barley (winter) plant response rating (0 to 100 scale): 65
Winter barley; [3]
  Plant response rating, Barley (winter): 70
Winter barley; [4]
  Plant response rating, Barley (winter): 80
Italian ryegrass; Rate 250 g/ha
  I. Ryegrass plant response rating (0 to 100 scale): 40
Italian ryegrass; [3]
  Plant response rating, I. Ryegrass: 55
Italian ryegrass; [4]
  Plant response rating, I. Ryegrass: 30
blackgrass; Rate 250 g/ha
  Blackgrass plant response rating (0 to 100 scale): 30
blackgrass; [3]
  Plant response rating, Blackgrass: 80
blackgrass; [4]
  Plant response rating, Blackgrass: 85
morningglory; [14]
  Morningglory plant response rating: 0
morningglory; [15]
  Morningglory plant response rating (0 to 10 scale): 0
morningglory; [16]
  Morningglory plant response rating: 0
morningglory; [17]
  Plant response rating, Morningglory: 0
morningglory; [18]
  Morningglory plant response rating: 0
morningglory; [19]
  Morningglory plant response rating: 2
morningglory; Rate 250 g/ha, Postemergence
  Plant response rating (0 to 10; 0 is no effect, 10 is complete control), Morningglory: 2
morningglory; [20]
  Morningglory plant response rating: 3

## CC(C)N(C(=O)n1oc(=O)n(C2CCCC2)c1=O)c1ccc(F)cc1F [Compound 284]
Green foxtail; Rate 250 g/ha
  Green foxtail plant response rating (0 to 100 scale): 100
Green foxtail; [22]
  Plant response rating, Green foxtail: 100
Green foxtail; [23]
  Plant response rating, Green foxtail: 100
Winter wheat [1]; Rate 250 g/ha
  Wheat (winter) plant response rating (0 to 100 scale): 70
Winter wheat [1]; [22]
  Plant response rating, Wheat (winter): 70
Winter wheat [1]; [23]
  Plant response rating, Wheat (winter): 80
pigweed; [14]
  Redroot pigweed plant response rating: 5
pigweed; [9]
  Redroot pigweed plant response rating: 7
pigweed; [17]
  Plant response rating, Redroot pigweed: 8
pigweed; [24]
  Redroot pigweed plant response rating: 3
pigweed; [25]
  Redroot pigweed plant response rating: 4
pigweed; [26]
  Redroot pigweed plant response rating: 6
pigweed; [27]
  Plant response rating, Redroot pigweed: 6
Wild oat
  Wild oat plant response rating (0 to 100 scale): 70
Wild oat; [22]
  Plant response rating, Wild oat: 60
Wild oat; [23]
  Plant response rating, Wild oat: 70
Winter wheat [2]; [4]
  Plant response rating, Wheat (winter): 85
Winter wheat [2]; Rate 250 g/ha, 0 to 100 scale where 0 is no effect and 100 is complete control
  Wheat (winter) plant response rating: 60
Winter wheat [2]; [21]
  Plant response rating, Wheat (winter): 20
Giant foxtail; [14]
  Giant foxtail plant response rating: 9
Giant foxtail; [9]
  Giant foxtail plant response rating: 9
Giant foxtail; [17]
  Plant response rating, Giant foxtail: 10
Giant foxtail; [24]
  Giant foxtail plant response rating: 0
Giant foxtail; [25]
  Giant foxtail plant response rating: 2
Giant foxtail; [26]
  Giant foxtail plant response rating: 9
Giant foxtail; [27]
  Plant response rating, Giant foxtail: 3
Winter barley; Rate 250 g/ha
  Barley (winter) plant response rating (0 to 100 scale): 50
Winter barley; [22]
  Plant response rating, Barley (winter): 30
Winter barley; [23]
  Plant response rating, Barley (winter): 60
Italian ryegrass; Rate 250 g/ha
  I. Ryegrass plant response rating (0 to 100 scale): 85
Italian ryegrass; [22]
  Plant response rating, I. Ryegrass: 70
Italian ryegrass; [23]
  Plant response rating, I. Ryegrass: 85
blackgrass; Rate 250 g/ha
  Blackgrass plant response rating (0 to 100 scale): 65
blackgrass; [23]
  Plant response rating, Blackgrass: 70
morningglory; [14]
  Morningglory plant response rating: 0
morningglory; [9]
  Morningglory plant response rating: 1
morningglory; [17]
  Plant response rating, Morningglory: 2
morningglory; [24]
  Morningglory plant response rating: 7
morningglory; [25]
  Morningglory plant response rating: 7
morningglory; [26]
  Morningglory plant response rating: 1
morningglory; [27]
  Plant response rating, Morningglory: 7
